Assays:
A1 receptor = conditions: cited from earlier work; for A1 selectivity: according to document record (Jacobson 1992); for selectivity to the A1 receptor (in words): existing A1 agonists
[1] = test system: pentylenetetrazole induced convulsion; assay: pentylenetetrazole induced convulsion in mouse; type: in vivo; conditions: antagonist ip 10 min before HEA 40 mg/kg, DPCPX 2 mg/kg, ZM241385 1 and 5 mg/kg
Method: Male ICR mouse, 18˜22 g; purchased from Animal Experiment Center of Wenzhou Medical University. Before experiment, animals were adapted to environment for at least 5 days. Kept at 25 °C, food and water were freely fed. Based on the weight, the healthy male ICR mice were randomly divided into control group (1% DMSO, ip), model group, CCPA group (0.1 mg·kg^−1, ip), HEA group (15 mg/kg, 40 mg/kg, 60 mg/kg), DPCPX group (2 mg·kg^−1, ip), ZM241385 group (1 mg·kg^−1, 5 mg·kg^−1, ip), DPCPX+HEA (2 mg·kg^−1+40 mg/kg, ip) group and ZM241385+HEA (1 mg·kg^−1+40 mg/kg, 5 mg·kg^−1+40 mg/kg ip) group.
The survival time and mortality after convulsion were respectively recorded for each group.

Compound | A1 selectivity (A1 receptor) | selectivity to the A1 receptor (in words) (A1 receptor) | effect of antagonist on the anti-convulsion action of the HEA [1] | effect of antagonist on the anti-convulsion action of the HEA ([1]; listed as Zm241385)
OC[C@H]1O[C@@H](n2cnc3c(NC4CCCC4)nc(Cl)nc32)[C@H](O)[C@@H]1O [CCPA] | 1500 fold | strong selectivity to the A1 receptor |  | 
OC[C@H]1O[C@@H](n2cnc3c(NC4CCCCC4)ncnc32)[C@H](O)[C@@H]1O [CHA] |  | strong selectivity to the A1 receptor |  | 
OC[C@H]1O[C@@H](n2cnc3c(NC4CCCC4)ncnc32)[C@H](O)[C@@H]1O [CPA] |  | strong selectivity to the A1 receptor |  | 
OC[C@H]1O[C@@H](n2cnc3c(N[C@H]4CC5CCC4C5)ncnc32)[C@H](O)[C@@H]1O (stereo partly shown) [S-ENBA] | up to 4700 fold |  |  | 
Nc1nc(NCCc2ccc(O)cc2)nc2nc(-c3ccco3)nn12 [ZM241385] |  |  | no significant effect on the anti-convulsion effect of the HEA | no significant effect on the anti-convulsion action of the HEA

— patent US10479814B2, “Adenosine receptor activation reagent and the uses of thereof” (Zhejiang Subtropical Crops Research Institute, priority 2014, dated 2019)
